Ends that are not written are not given here. * marks the point of attachment. X1 = 2,3‑bis(palmitoyloxy)‑(2RS)‑propyl, CCCCCCCCCCCCCCCC(=O)OCC(C*)OC(=O)CCCCCCCCCCCCCCC; Palmitoyl = CCCCCCCCCCCCCCCC(=O)*
Legend:
[1] = biological target: T1, TLR9-CpG-DNA interaction (Mus musculus, UniProt Q9EQU3); experiment: SPR biosensor analysis of inhibitors on TLR9-CpG-DNA interaction; format: binding, murine; conditions: for inhibition of binding of TLR9 to CpG-DNA: SPR, 200 nM TLR9, immobilized CpG-DNA 1668
T1 construct: mTLR9ect (aa 1-816); made in house
T1 sequence (Q9EQU3 26-816): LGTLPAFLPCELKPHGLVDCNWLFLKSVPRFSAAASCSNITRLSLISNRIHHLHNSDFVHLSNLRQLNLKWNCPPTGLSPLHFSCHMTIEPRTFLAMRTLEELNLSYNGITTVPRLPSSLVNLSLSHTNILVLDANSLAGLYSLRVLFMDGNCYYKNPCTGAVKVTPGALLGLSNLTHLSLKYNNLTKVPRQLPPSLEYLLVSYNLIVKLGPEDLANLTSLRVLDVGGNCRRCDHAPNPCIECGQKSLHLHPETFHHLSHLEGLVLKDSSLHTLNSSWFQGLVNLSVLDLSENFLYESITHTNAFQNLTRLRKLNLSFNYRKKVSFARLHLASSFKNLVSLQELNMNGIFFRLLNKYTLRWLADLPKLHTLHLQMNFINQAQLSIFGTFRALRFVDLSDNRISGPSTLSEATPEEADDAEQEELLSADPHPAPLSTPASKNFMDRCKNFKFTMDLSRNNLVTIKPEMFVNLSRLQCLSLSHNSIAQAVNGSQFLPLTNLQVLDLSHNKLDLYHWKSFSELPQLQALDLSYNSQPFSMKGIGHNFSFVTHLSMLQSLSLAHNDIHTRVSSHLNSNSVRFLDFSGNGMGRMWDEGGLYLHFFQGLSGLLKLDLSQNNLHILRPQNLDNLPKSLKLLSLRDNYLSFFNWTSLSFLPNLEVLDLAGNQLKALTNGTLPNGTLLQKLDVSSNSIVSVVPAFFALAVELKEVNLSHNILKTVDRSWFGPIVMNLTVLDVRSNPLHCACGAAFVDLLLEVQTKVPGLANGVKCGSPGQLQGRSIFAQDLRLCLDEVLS
Experimental: Biotinylated CpG-DNA 1668 (SEQ ID NO:1) and non-CpG-DNA 1668GC (SEQ ID NO:3) were immobilized on streptavidin sensor chip flow cells 1 and 2, respectively.
FIG. 2B is a graph depicting SPR biosensor analysis of quinoquine (QC) on TLR9-PAMP interaction. Biotinylated CpG-DNA 1668 (SEQ ID NO:1) and non-CpG-DNA 1668GC (SEQ ID NO:3) were immobilized on streptavidin sensor chip flow cells 1 and 2, respectively. 200 nM TLR9 and indicated concentrations of quinoquine were injected and sensorgrams recorded.
SPR biosensor analysis. Real-time binding of TLR9 or TLR2 was measured by surface plasmon resonance biosensor technology using the BiaCore X system (Uppsala, Sweden). For analysis of TLR9 and TLR2 interaction, biotinylated CpG-DNA and non-CpG-DNA, or biotinylated Pam3CysK4 and PHCK4, respectively, were loaded in running buffer (50 mM MES, 150 mM NaCl, 1 mM MgCl2 at pH 6.5) on SA chips precoated with streptavidin (Biacore AB, Uppsala, Sweden). Non-CpG-DNA or PHCK4 (Wiesmuller K H et al. (1989) Vaccine 7:29-33) served as reference for CpG-DNA and Pam3CysK4 interaction (structure or sequence in Table 1). […] TLR proteins were introduced at 200 nM or as indicated in 40 μl running buffer at a flow rate of 10 μl/min. Binding was measured at 25° C. for 750 s (delay time 300 s). […] Sensorgrams were recorded and kinetic data were calculated by the BiaCore Evaluation program (Biacore, version 3.0.1). Regeneration of the chip was performed by injection of 10 μl 50 mM NaOH, 1 M NaCl and extensive re-equilibration.

[2] = system: murine TLR9; experiment: NF-κB luciferase assay, HEK 293 cells transfected with murine TLR9; format: cell-based; conditions: TLR9-transfected HEK 293 cells, 1 μM CpG-DNA, inhibitor added 15 min prior to stimulation
Experimental: Activation is expressed as fold induction compared to no stimulation. NF-κB luciferase assay. For monitoring transient NF-κB activation, 3×10^6 HEK 293 cells were electroporated at 200 volt and 950 μF with 20 ng of a NF-κB luciferase reporter plasmid (kindly provided by Patrick Baeuerle, Munich, Germany) and 1 μg mTLR2 (kindly provided by Tularik, Inc., South San Francisco, USA), mTLR9, or mTLR9-mut expression plasmid. Cells were seeded at 10^5 cells per well and after overnight culture stimulated with 1 μM phosphorothioated CpG-DNA 1668 (SEQ ID NO:1), 1 μM non-CpG-DNA 1668GC (SEQ ID NO:3), 1 μg/ml Pam[…][…] or 1 μg/ml PHCK4 for further 8 hours. […] Stimulated cells were lysed using reporter lysis buffer (Promega, Mannheim, Germany) and lysates were assayed for luciferase activity using a Berthold luminometer (Wildbad, Germany) according to the manufacturer's instruction.

[3] = system: murine TLR2; experiment: NF-κB luciferase assay, HEK 293 cells transfected with murine TLR2; format: cell-based; conditions: TLR2-transfected HEK 293 cells, 1 μg/ml Pam3Cys
[4] = biological target: T2, mTLR2ect (TLR2-Pam3Cys interaction) (Mus musculus, UniProt Q9QUN7); experiment: SPR biosensor analysis of TLR2-Pam3Cys binding; set-up: species or system murine; conditions: PHC as reference
T2 construct: mTLR2ect (aa 1-587); made in house
T2 sequence (Q9QUN7 25-587): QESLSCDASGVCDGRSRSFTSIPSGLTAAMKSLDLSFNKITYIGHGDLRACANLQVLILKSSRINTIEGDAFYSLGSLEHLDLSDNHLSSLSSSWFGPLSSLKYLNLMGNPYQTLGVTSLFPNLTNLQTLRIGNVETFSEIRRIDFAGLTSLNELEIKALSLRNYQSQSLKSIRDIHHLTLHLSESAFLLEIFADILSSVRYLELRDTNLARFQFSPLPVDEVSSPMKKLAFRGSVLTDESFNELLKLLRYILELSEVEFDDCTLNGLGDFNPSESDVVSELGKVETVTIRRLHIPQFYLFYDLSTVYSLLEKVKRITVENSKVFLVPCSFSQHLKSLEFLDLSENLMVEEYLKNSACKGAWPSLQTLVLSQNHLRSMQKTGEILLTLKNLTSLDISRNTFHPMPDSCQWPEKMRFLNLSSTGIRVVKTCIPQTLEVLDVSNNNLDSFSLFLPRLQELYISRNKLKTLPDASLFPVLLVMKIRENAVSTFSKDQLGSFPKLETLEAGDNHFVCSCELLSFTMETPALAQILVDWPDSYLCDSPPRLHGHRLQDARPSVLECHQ

For `CCN(CC)CCCC(C)Nc1ccnc2cc(Cl)ccc12` (stereo not drawn) [chloroquine], the “inhibition of binding of TLR9 to CpG-DNA” value [1] was “dose-dependently inhibit”, the “inhibition of TLR9-driven NF-κB activation” value [2] was “dose-dependently inhibit” and the “inhibition of Pam3Cys-driven cellular activation” value [3] was “inhibited neither”.

With `CCN(CC)CCCC(C)Nc1c2ccc(Cl)cc2nc2ccc(OC)cc12` (stereo not drawn) [quinacrine] the “potency in blocking TLR9-CpG-DNA interaction and cellular activation, compared with chloroquine” value ([1]; SPR and TLR9-transfected HEK 293 cells) was “more potent”, the “inhibition of binding of TLR9 to CpG-DNA” value [1] was “dose-dependently inhibit” and the “inhibition of TLR2-Pam3Cys binding” value ([4]; 200 nM TLR2, immobilized Pam3Cys) was “inhibited neither”. For the same compound, the “inhibition of TLR9-driven NF-κB activation” value [2] was “dose-dependently inhibit” and the “inhibition of Pam3Cys-driven cellular activation” value [3] was “inhibited neither”.

With “S-(2,3-bis(palmitoyloxy)-(2-RS)-propyl)-N-palmitoyl-(R)-Cys-(S)-Ser-(S)-Lys(4) (Palmitoyl-C(X1)SKKKK; also: biotinylated (site not given here)) [Pam3Cys]” the “Binding of TLR2 to Pam3Cys” value [4] was “specific”.

— patent US20050100983A1, “Cell-free methods for identifying compounds that affect toll-like receptor 9 (TLR9) signaling” (Coley Pharmaceutical GmbH, priority 2003, published 2005)
